Assays:
[1] = target: Human JNK1α1 (Homo sapiens, UniProt P45983); assay: JNK assay in vitro, phosphorylation of GST-ATF2 (19-96) with [γ-33P] ATP, JNK1; type: biochemical; conditions: 2 nM enzyme, 1 μM ATF2, 6 μM ATP, 30° C. for 30 min
Experimental: (§1) JNK activity was measured by phosphorylation of GST-ATF2 (19-96) with [γ-^33P] ATP. The enzyme reaction was conducted at Km concentrations of ATP and the substrate at final volume of 40 μl in buffer containing 25 mM HEPES, pH 7.5, 2 mM dithiothreitol, 150 mM NaCl, 20 mM MgCl2, 0.001% Tween® 20, 0.1% BSA and 10% DMSO. Human JNK2α2 assay contains 1 nM enzyme, 1 μM ATF2, 8 μM ATP with 1 uCi [γ-^33P] ATP. Human JNK1α1 assay contains 2 nM enzyme, 1 μM ATF2, 6 μM ATP with 1 μCi [γ-^33P] ATP. Human JNK3 (Upstate Biotech #14-501M) assay contains 2 nM enzyme, 1 μM ATF2, 4 μM ATP with 1 μCi [γ-^33P] ATP. The enzyme assay was carried out in the presence or absence of several compound concentrations. JNK and compound were pre-incubated for 10 min., followed by initiation of the enzymatic reaction by adding ATP and the substrate. The reaction mixture was incubated at 30° C. for 30 min. At the end of incubation, the reaction was terminated by transferring 25 μl of the reaction mixture to 150 μl of 10% glutathione Sepharose® slurry (Amersham # 27-4574-01) containing 135 mM EDTA. The reaction product was captured on the affinity resin, and washed on a filtration plate (Millipore, MABVNOB50) with phosphate buffered saline for six times to remove free radionucleotide. The incorporation of ^33P into ATF2 was quantified on a microplate scintillation counter (Packard Topcount). Compound inhibition potency on JNK was measured by IC50 value generated from ten concentration inhibition curves fitted into the 3-parameter model: % inhibition=Maximum/(1+(IC50/[Inhibitor])^slope). Data were analyzed on Microsoft Excel for parameter estimation.

[2] = target: Human JNK2α2 (Homo sapiens, UniProt P45984); assay: JNK assay in vitro, phosphorylation of GST-ATF2 (19-96) with [γ-33P] ATP, JNK2; type: biochemical; conditions: 1 nM enzyme, 1 μM ATF2, 8 μM ATP, 30° C. for 30 min
Experimental: as §1

Chain of Human JNK1α1 (P45983 1-384 isoform P45983-2): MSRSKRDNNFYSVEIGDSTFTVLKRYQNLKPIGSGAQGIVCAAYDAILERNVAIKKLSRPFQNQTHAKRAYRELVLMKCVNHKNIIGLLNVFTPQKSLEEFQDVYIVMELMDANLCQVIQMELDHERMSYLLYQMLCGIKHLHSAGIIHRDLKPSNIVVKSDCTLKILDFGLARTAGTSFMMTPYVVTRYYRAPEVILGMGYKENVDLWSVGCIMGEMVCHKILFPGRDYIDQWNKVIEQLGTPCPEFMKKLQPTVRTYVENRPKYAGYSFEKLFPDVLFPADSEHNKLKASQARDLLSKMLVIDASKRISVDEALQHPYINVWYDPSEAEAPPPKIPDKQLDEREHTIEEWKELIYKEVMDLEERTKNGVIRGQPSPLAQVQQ
Chain of Human JNK2α2 (P45984 whole entry): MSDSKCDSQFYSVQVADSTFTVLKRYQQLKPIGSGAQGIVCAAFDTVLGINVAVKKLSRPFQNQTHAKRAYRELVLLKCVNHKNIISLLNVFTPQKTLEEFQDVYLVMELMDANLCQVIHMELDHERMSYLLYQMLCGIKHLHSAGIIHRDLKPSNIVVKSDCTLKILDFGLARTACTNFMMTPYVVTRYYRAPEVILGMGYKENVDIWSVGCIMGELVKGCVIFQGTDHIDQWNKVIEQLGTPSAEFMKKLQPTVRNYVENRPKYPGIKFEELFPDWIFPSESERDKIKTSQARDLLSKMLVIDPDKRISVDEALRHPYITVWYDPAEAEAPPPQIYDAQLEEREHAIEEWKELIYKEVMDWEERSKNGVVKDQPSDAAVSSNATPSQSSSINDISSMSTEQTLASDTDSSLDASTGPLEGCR

Cc1cc2cnc(NC3CCCCC3)nc2n(CCCO)c1=O [Compound 11] showed an IC50 [1] of 0.503 µM and an IC50 [2] of 0.713 µM.

In the case of Cc1cc2cnc(N[C@H]3CC[C@H](O)CC3)nc2n(CCCO)c1=O [Compound 7, 2-(4-Hydroxy-cyclohexylamino)-8-(3-hydroxy-propyl)-6-methyl-8H-pyrido[2,3-d]pyrimidin-7-one], the IC50 [1] is reported as 0.291 µM and the IC50 [2] is reported as 0.409 µM.

CC(CCO)n1c(=O)ccc2cnc(NC3CCCCC3)nc21 (stereo not drawn) [Compound 1, 2-Cyclohexylamino-8-(3-hydroxy-1-methyl-propyl)-8H-pyrido[2,3-d]pyrimidin-7-one] gave an IC50 [1] of 0.0701 µM and an IC50 [2] of 0.154 µM.

CS(=O)(=O)N[C@H]1CC[C@H](Nc2ncc3ccc(=O)n(CCCO)c3n2)CC1 [Compound 5, N-{4-[8-(3-Hydroxy-propyl)-7-oxo-7,8-dihydro-pyrido[2,3-d]pyrimidin-2-ylamino]-cyclohexyl}-methanesulfonamide] gave an IC50 [1] of 0.282 µM and an IC50 [2] of 0.778 µM.

For O=c1ccc2cnc(NC3CCCCC3)nc2n1C1CCCC1 [Compound 3, 2-Cyclohexylamino-8-cyclopentyl-8H-pyrido[2,3-d]pyrimidin-7-one], the IC50 [1] was 0.108 µM and the IC50 [2] was 0.136 µM.

In the case of CS(=O)(=O)NCCCn1c(=O)ccc2cnc(NC3CCCCC3)nc21 [Compound 9, N-[3-(2-Cyclohexylamino-7-oxo-7H-pyrido[2,3-d]pyrimidin-8-yl)-propyl]-methanesulfonamide], the IC50 [1] is reported as 0.464 µM and the IC50 [2] is reported as 0.625 µM.

Reference: patent US8404695B2, “Pyrimidinyl pyridone inhibitors of JNK” (Roche Palo Alto LLC, priority 2008, dated 2013)
